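Interpolation was linear, between the two tested concentrations surrounding the appropriate level; five concentrations were tested over 48 hours in 96-well plates. GI50 is the concentration that inhibits growth by half.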 Calls of active or inactive are those of the source. Rule as the data show it: active = GI50 up to about 1.1 µM and inactive = higher.
Key:
Experiment in all cases: growth of human tumour cells (NCI), 48 h
DU-145 = tested on: DU-145
M14 = tested on: M14
MDA-MB-231 = tested on: MDA-MB-231
MOLT-4 = tested on: MOLT-4
HCT-15 = tested on: HCT-15
HOP-92 = tested on: HOP-92
NCI-H522 = tested on: NCI-H522
Malme-3M = tested on: Malme-3M
U-251 = tested on: U-251
UACC-257 = tested on: UACC-257
T47D = tested on: T47D
HCT-116 = tested on: HCT-116
SR = tested on: SR
SW-620 = tested on: SW-620
A498 = tested on: A498
NCI-H23 = tested on: NCI-H23
SN12C = tested on: SN12C
A549 = tested on: A549
SF-539 = tested on: SF-539
CCRF-CEM = tested on: CCRF-CEM

SMILES | GI50 (DU-145) | GI50 (M14) | GI50 (MDA-MB-231) | GI50 (MOLT-4) | GI50 (HCT-15) [µM] | GI50 (HOP-92) | GI50 (NCI-H522) | GI50 (Malme-3M) | GI50 (U-251) | GI50 (UACC-257) | GI50 (T47D) | GI50 (HCT-116) | GI50 (SR) | GI50 (SW-620) | GI50 (A498) | GI50 (NCI-H23) | GI50 (SN12C) | GI50 (A549) | GI50 (SF-539) | GI50 (CCRF-CEM)
COCN1C(=O)[C@@H]2CCCN2C(=O)c2ccc(Cl)cc21 | > 100 µM (inactive) | > 100 µM (inactive) | > 100 µM (inactive) | > 100 µM (inactive) | > 100 | > 100 µM (inactive) | > 100 µM (inactive) | > 100 µM (inactive) | > 100 µM (inactive) | > 100 µM (inactive) | > 100 µM (inactive) | > 100 µM (inactive) | > 100 µM (inactive) | > 100 µM (inactive) | > 100 µM (inactive) | > 100 µM (inactive) | > 100 µM (inactive) | > 100 µM (inactive) |  | 
CC(C)(C)c1cc2c(O)c(c1)C(c1ccccc1)c1cc(C(C)(C)C)cc(c1O)Cc1cc(C(C)(C)C)cc(c1O)C(c1ccccc1)c1cc(C(C)(C)C)cc(c1O)C2 (centres undefined) | > 100 µM (inactive) | > 100 µM (inactive) | > 100 µM (inactive) | > 100 µM (inactive) | > 100 | > 100 µM (inactive) | > 100 µM (inactive) |  | > 100 µM (inactive) | > 100 µM (inactive) | > 100 µM (inactive) | > 100 µM (inactive) | 62.7 µM (inactive) | > 100 µM (inactive) | > 100 µM (inactive) | > 100 µM (inactive) | > 100 µM (inactive) | > 100 µM (inactive) | > 100 µM (inactive) | 44.9 µM (inactive)
Cc1ccc(S(=O)(=O)NNCNC(=O)c2ccccc2)cc1 | > 100 µM (inactive) | > 100 µM (inactive) | > 100 µM (inactive) | 24.2 µM (inactive) | 70.8 | > 100 µM (inactive) | > 100 µM (inactive) | > 100 µM (inactive) | > 100 µM (inactive) | > 100 µM (inactive) | 83.4 µM (inactive) | > 100 µM (inactive) | 2.29 µM (inactive) | 94.8 µM (inactive) |  | > 100 µM (inactive) | > 100 µM (inactive) | > 100 µM (inactive) | > 100 µM (inactive) | 17.6 µM (inactive)
CCOC(=O)C(NC(=O)c1ccccc1)(Nc1ccc(S(=O)(=O)Nc2ccc(OC)nn2)cc1)C(F)(F)F (centres undefined) | > 100 µM (inactive) | > 100 µM (inactive) | > 100 µM (inactive) | > 100 µM (inactive) | > 100 | > 100 µM (inactive) | > 100 µM (inactive) | > 100 µM (inactive) | > 100 µM (inactive) | > 100 µM (inactive) | > 100 µM (inactive) | > 100 µM (inactive) | > 100 µM (inactive) | > 100 µM (inactive) |  | > 100 µM (inactive) | > 100 µM (inactive) | > 100 µM (inactive) | > 100 µM (inactive) | > 100 µM (inactive)
COC1=C(OC)C(=O)C(Cc2c(C)nc3sccn23)=C(C)C1=O | 18.1 µM (inactive) | 17 µM (inactive) | 13.1 µM (inactive) | 2.01 µM (inactive) | 16.5 |  | 6.64 µM (inactive) | 10.9 µM (inactive) | 15.6 µM (inactive) | 5.65 µM (inactive) | 18.2 µM (inactive) | 19.3 µM (inactive) | 14.5 µM (inactive) | 14.8 µM (inactive) | 14.9 µM (inactive) | 10.9 µM (inactive) | 15.8 µM (inactive) | 11 µM (inactive) | 16.5 µM (inactive) | 3.56 µM (inactive)
CC(=O)OCC1OC(n2c(-c3ccc(C)cc3)cc(-c3ccccc3)c(C#N)c2=S)C(OC(C)=O)C(OC(C)=O)C1OC(C)=O (centres undefined) | > 100 µM (inactive) | > 100 µM (inactive) | > 100 µM (inactive) | > 100 µM (inactive) | > 100 | > 100 µM (inactive) | > 100 µM (inactive) | > 100 µM (inactive) | > 100 µM (inactive) |  | > 100 µM (inactive) | > 100 µM (inactive) | > 100 µM (inactive) | > 100 µM (inactive) | 31 µM (inactive) | > 100 µM (inactive) | > 100 µM (inactive) | > 100 µM (inactive) | > 100 µM (inactive) | 
O=c1cc(-c2ccccc2)[nH]c2ccc(N3CCCCC3)cc12 | 0.0468 µM (active) | 0.0166 µM (active) | 0.0501 µM (active) | 0.0605 µM (active) | 0.0329 | < 0.01 µM (active) | 0.0133 µM (active) | > 100 µM (inactive) | 0.0171 µM (active) | 42.6 µM (inactive) | > 100 µM (inactive) | < 0.0184 µM (active) | 0.0172 µM (active) | 0.0468 µM (active) |  | 0.023 µM (active) | 0.0373 µM (active) | 0.0488 µM (active) | < 0.0159 µM (active) | < 0.0161 µM (active)
Cn1c(=O)c2c(n(C)c1=O)n1c(=O)c3ccccc3nc1n2C | > 100 µM (inactive) | > 100 µM (inactive) | > 100 µM (inactive) | > 100 µM (inactive) | > 100 | > 100 µM (inactive) | 90.4 µM (inactive) |  | 83.6 µM (inactive) | > 100 µM (inactive) | > 100 µM (inactive) | > 100 µM (inactive) | 0.0237 µM (active) | > 100 µM (inactive) | > 100 µM (inactive) | > 100 µM (inactive) | > 100 µM (inactive) | > 100 µM (inactive) | > 100 µM (inactive) | > 100 µM (inactive)
O=C(CCc1ccc(O)cc1)NCCCNC(=O)CCc1ccc(O)cc1 | > 100 µM (inactive) | > 100 µM (inactive) | > 100 µM (inactive) | > 100 µM (inactive) | > 100 |  | > 100 µM (inactive) | > 100 µM (inactive) | > 100 µM (inactive) | > 100 µM (inactive) | > 100 µM (inactive) | > 100 µM (inactive) | > 100 µM (inactive) | > 100 µM (inactive) | > 100 µM (inactive) | > 100 µM (inactive) | > 100 µM (inactive) | > 100 µM (inactive) | > 100 µM (inactive) | > 100 µM (inactive)
CSc1c(C#N)c(S)[nH]c(=O)c1C#N | 48 µM (inactive) | 24.5 µM (inactive) | 42.8 µM (inactive) | 33 µM (inactive) | 44.4 |  | 8.34 µM (inactive) | 7.14 µM (inactive) | > 100 µM (inactive) | 35.8 µM (inactive) | 24.9 µM (inactive) | 34.4 µM (inactive) | 51.2 µM (inactive) | 48.9 µM (inactive) | 38.2 µM (inactive) | 23.7 µM (inactive) | 85.5 µM (inactive) | 40.7 µM (inactive) | > 100 µM (inactive) | 55.5 µM (inactive)
O=C(Oc1ccccc1)N1c2ccccc2[C@@]23O[C@]24CCC[C@H]3C#C/C=C\C#C[C@H]14 | 1.05 µM (active) | 15.2 µM (inactive) | 12.3 µM (inactive) | 0.706 µM (active) | 13.2 | 12.3 µM (inactive) |  | 10.4 µM (inactive) | 16.7 µM (inactive) | 14.9 µM (inactive) | 6.5 µM (inactive) | 11.4 µM (inactive) | 10.4 µM (inactive) | 11.4 µM (inactive) | 14.3 µM (inactive) | 11.1 µM (inactive) | 13.7 µM (inactive) | 0.0942 µM (active) | 20.4 µM (inactive) | 15.7 µM (inactive)
O=c1[nH]c(=O)c2c3n(cc2[nH]1)CCCCC3 | > 100 µM (inactive) | > 100 µM (inactive) | 64.4 µM (inactive) | > 100 µM (inactive) | > 100 | > 100 µM (inactive) | > 100 µM (inactive) | > 100 µM (inactive) | > 100 µM (inactive) | > 100 µM (inactive) | > 100 µM (inactive) | > 100 µM (inactive) | > 100 µM (inactive) |  | > 100 µM (inactive) | > 100 µM (inactive) | > 100 µM (inactive) | > 100 µM (inactive) |  | > 100 µM (inactive)
Fc1ccc(/C=C2\COCC3=C2NC(=S)NC3c2ccc(F)cc2)cc1 (centres undefined) | 26.5 µM (inactive) | 16.4 µM (inactive) | 18.5 µM (inactive) | 20 µM (inactive) | 15.7 | 18.7 µM (inactive) | 16.4 µM (inactive) |  | 20.5 µM (inactive) | 18.7 µM (inactive) | 26.1 µM (inactive) | 17.3 µM (inactive) | 19 µM (inactive) | 19.7 µM (inactive) | 16 µM (inactive) | 20.6 µM (inactive) | 18.5 µM (inactive) |  | 20 µM (inactive) | 19 µM (inactive)
CO/C(N)=C(C#N)/N=C/c1ccc2ccccc2c1 | > 100 µM (inactive) |  | 19.5 µM (inactive) | 30.6 µM (inactive) |  | 34.5 µM (inactive) | > 100 µM (inactive) | > 100 µM (inactive) | 30.8 µM (inactive) | 7.52 µM (inactive) | 8.73 µM (inactive) | 76.2 µM (inactive) | 27.6 µM (inactive) | > 100 µM (inactive) | 33 µM (inactive) | > 100 µM (inactive) | > 100 µM (inactive) | 77.6 µM (inactive) |  | 24.8 µM (inactive)
COC1CN(C)/C(=N\c2cccc3ccccc23)S1 (centres undefined) | > 10 µM (inactive) | > 10 µM (inactive) | > 10 µM (inactive) | > 10 µM (inactive) | > 10 | > 10 µM (inactive) | > 10 µM (inactive) | > 10 µM (inactive) | > 10 µM (inactive) | > 10 µM (inactive) | > 10 µM (inactive) | > 10 µM (inactive) | > 10 µM (inactive) | > 10 µM (inactive) |  | > 10 µM (inactive) | > 10 µM (inactive) | > 10 µM (inactive) | > 10 µM (inactive) | > 10 µM (inactive)
